Legend:
mice = details: according to published information; cited from earlier work
migraine headaches = test: Use of linalool shampoo by individuals suffering from migraines; assay type: in vivo, human; details: same individual, prescription drug taken before the shampoo use
Text: One individual who had suffered from migraines for several years and who had taken the prescription drug Prozac® with only limited benefits, started using a commercial product, Ivory Shampoo®, with approximately 1% by volume of linalool added. […] Other commercially available shampoos containing little perfume with approximately 1% by volume of linalool added were substituted for the Ivory Shampoo with linalool and the benefit persisted. Another commercially available shampoo that has been used with about 1% by volume of linalool added is Botanical Nutrients® soyflower shampoo containing: water; extracts of geranium maculatum (geranium), Echinacea angustifolia (coneflower), and lavendula angustifolia (lavender); ammonium lauryl sulfate; decyl glucoside; cocoamide MEA; PPG-5-ceteth-10-phosphatel cocoamidopropyl betaine; fragrance; polyquatemium-7; glycerin; panthenol; hydrolyzed soy protein; isostearamidopropyl morpholine lactate; vitamin E; disodium wheat germamido PEG-2 sulfosuccinate; guar hydroxypropyl ammonium chloride; PEG-150 distearate; PEG-30 castor oil; PEG-12 dimethicone; benzophenone-4; disodium EDTA; diazolidinyl urea; methylparaben; and citric acid. Another shampoo that has been used is Bath & Body Works® Bio balancing shampoo.
When this individual stopped using the commercial shampoos containing about 1% linalool, a migraine headache was experienced. […]

| Structure (SMILES) | tumors in mice (mice) | prevention of migraine headaches by prescription drug (migraine headaches) |
| --- | --- | --- |
| C=C(C)[C@H]1CC=C(C)CC1 [Limonene] | shown to cause tumors in mice |  |
| CNCCC(Oc1ccc(C(F)(F)F)cc1)c1ccccc1 (centres unmarked) [Prozac] |  | had not prevented migraine headaches |
